Results taken from patent US5135955A, “Propanamine derivatives” (Eli Lilly and Company, priority 1989, dated 1992).
Counter-ions that a name gives are not always drawn.

What was measured:
Candida albicans A26 = test: in vitro antifungal activity, Candida albicans (MIC); type: cell-based; details: 35° C., 48 hours, RPMI 1640 plus 10% fetal calf serum, 95-100% inhibition of growth; for MIC: read-out: minimum inhibitory concentration (MIC), C.a.
Procedure: (§1) The antifungal activity was assayed in vitro against Candida abicans A26, Trichophyton mentagrophytes CDC27, and Aspergillus flavus M152. The inocula, previously frozen under liquid nitrogen in a lactose, glycerol and water solution, were standardized by counting spores with a hemocytometer. Final concentrations (C. albicans, 1×10^5 cells/m; T. mentagrophytes, 1×10^6 cells/ml; A. flavus, 1×10^5 cells/ml) in RPMI 1640 plus 10% fetal calf serum were added to each of the 96 wells of a microtiter plate (100 μl/well).The compounds to be tested were solubilized in either water or ethanol and added to the microtiter wells in serial dilutions to give final concentrations in the range 0.039-20 μg/ml. The plates were incubated at 35° C. for 48 hours. The minimum inhibitory concentration (MIC) values were determined as the highest dilution showing 95-100% inhibition of growth.
(§2) ^a Minimum inhibitory concentration expressed in μg/ml
^b C.a. means Candida albicans A26

Aspergillus flavus M152 = test: in vitro antifungal activity, Aspergillus flavus (MIC); type: cell-based; details: 35° C., 48 hours, RPMI 1640 plus 10% fetal calf serum, 95-100% inhibition of growth; for MIC: read-out: minimum inhibitory concentration (MIC), A.f.
Procedure: as §1, §2
^c A.f. means Aspergillus flavus M152

[1] = system: thromboplastin clotting time in human plasma; test: prothrombin time test (thromboplastin clotting time in human plasma); type: biochemical; details: 37° C., human plasma
Procedure: Briefly, to 0.1 ml of each of human plasma, normal saline and thromboplastin was added 0.03 ml of the test compound of the present invention (2 mg/ml in 50 percent methanol). The clotting time was measured at 37° C. with a Fibrometer.
^a Expressed in seconds
^b Concentration of compound tested in micrograms per milliliter of […]

[2] = system: Trichophyton mentagrophytes CDC27; test: in vitro antifungal activity, Trichophyton mentagrophytes (MIC); type: cell-based; details: 35° C., 48 hours, RPMI 1640 plus 10% fetal calf serum, 95-100% inhibition of growth; for MIC: read-out: minimum inhibitory concentration (MIC), T.m.
Procedure: as §1, §2
^d T.m. means Trichophyton mentagrophytes CDC27

[3] = 180 micrograms per milliliter of plasma
[4] = 45 micrograms per milliliter of plasma
[5] = 90 micrograms per milliliter of plasma
[6] = 22 micrograms per milliliter of plasma

Molecule: Cl.NCC(Cc1cccc2ccccc12)c1ccccc1 (stereo not drawn) [Example 22, β-Phenyl-1-naphthalenepropanamine hydrochloride]
- MIC (Candida albicans A26): 20 µg/mL
- MIC (Aspergillus flavus M152): 10 µg/mL
- plasma prothrombin time [1, 3]: > 300 s
- MIC [2]: 10 µg/mL

Molecule: CCCCOc1ccc(CCC(C)N(C)C)cc1 (stereo not drawn) [Example 41, 4-Butoxy-N,N,α-trimethylbenzenepropanamine hydrochloride]
- MIC (Candida albicans A26): 0.156 µg/mL
- MIC (Aspergillus flavus M152): 1.25 µg/mL
- plasma prothrombin time [1, 4]: 21 s
- plasma prothrombin time [1, 5]: 24 s
- plasma prothrombin time [1, 3]: 41 s
- MIC [2]: 0.078 µg/mL

Molecule: CC(CCc1ccc(OS(=O)(=O)c2ccccc2)cc1)N(C)C (stereo not shown) [Example 66, Benzenesulfonic acid 4-[3-(dimethylamino)butyl]phenylester]
- MIC (Candida albicans A26): 10 µg/mL
- MIC (Aspergillus flavus M152): 20 µg/mL
- MIC [2]: 5 µg/mL

Molecule: CC(CCc1ccc(OCCC2CCCCC2)cc1)NCCN(C)C (stereo not shown) [Example 46, N'-[3-[4-(2-Cyclohexylethoxy)phenyl]-1-methylpropyl]-N,N-dimethyl-1,2-ethanediamine dihydrochloride]
- MIC (Candida albicans A26): 10 µg/mL
- MIC (Aspergillus flavus M152): 20 µg/mL
- MIC [2]: 10 µg/mL

Molecule: CCCCCCCCOc1ccc(CC(CN)c2ccccc2)cc1 (stereo not drawn) [Example 2, 4-(Octyloxy)-β-phenylbenzenepropanamine]
- MIC (Candida albicans A26): 20 µg/mL
- MIC (Aspergillus flavus M152): 10 µg/mL
- plasma prothrombin time [1, 6]: 38 s
- plasma prothrombin time [1, 4]: 79 s
- plasma prothrombin time [1, 5]: > 300 s
- plasma prothrombin time [1, 3]: > 300 s
- MIC [2]: 20 µg/mL

Molecule: 4-(2-Butenyloxy)-N,N,α-trimethylbenzenepropanamine hydrochloride [Example 56]
- minimum inhibitory concentration (MIC), C.a. (Candida albicans A26): 0.625 µg/mL
- minimum inhibitory concentration (MIC), A.f. (Aspergillus flavus M152): 5 µg/mL
- minimum inhibitory concentration (MIC), T.m. [2]: 0.312 µg/mL

Molecule: CCCCOc1ccc(CCC(C)N2CC(C)OC(C)C2)cc1 (stereo not shown) [Example 69, 4-[3-(4-Butoxyphenyl)-1-methylpropyl]-2,6-dimethylmorpholine hydrochloride]
- MIC (Candida albicans A26): > 20 µg/mL
- MIC (Aspergillus flavus M152): > 20 µg/mL
- MIC [2]: 1.25 µg/mL

Molecule: CC(CCc1ccc(OCc2ccc(C(F)(F)F)cc2)cc1)N(C)C (stereo not drawn) [Example 65, N,N,α-Trimethyl-4-[[4-(trifluoromethyl)phenyl]methoxy]-benzenepropanamine hydrochloride]
- MIC (Candida albicans A26): 20 µg/mL
- MIC (Aspergillus flavus M152): 10 µg/mL
- MIC [2]: 5 µg/mL

Molecule: CCCS(=O)(=O)Oc1ccc(CCC(C)N(C)C)cc1 (stereo not shown) [Example 67]
- MIC (Candida albicans A26): 20 µg/mL
- MIC (Aspergillus flavus M152): 20 µg/mL
- MIC [2]: > 20 µg/mL

Molecule: CC(CCc1ccc(OCCn2cncn2)cc1)N(C)C (stereo not drawn) [Example 62, N,N,α-Trimethyl-4-[2-(1H-1,2,4-triazol-1-yl)ethoxy]benzenepropanamine]
- MIC (Candida albicans A26): 10 µg/mL
- MIC (Aspergillus flavus M152): 20 µg/mL
- MIC [2]: 10 µg/mL

Molecule: CC(CCc1ccc(OCc2ccc(Cl)cc2Cl)cc1)N(C)C (stereo not drawn) [Example 64, N,N,α-Trimethyl-4-(2,4-dichlorophenyl)methoxy]benzenepropanamine hydrochloride]
- MIC (Candida albicans A26): 20 µg/mL
- MIC (Aspergillus flavus M152): 5 µg/mL
- MIC [2]: 5 µg/mL

Molecule: CC(CCc1ccc(OCC(=O)C(C)(C)C)cc1)N(C)C (stereo not shown) [Example 60, 3,3-Dimethyl-1-[4-[3-(dimethylamino)-1-butyl]phenoxy]-2-butenone hydrochloride]
- MIC (Candida albicans A26): 10 µg/mL
- MIC (Aspergillus flavus M152): 10 µg/mL
- MIC [2]: 0.625 µg/mL

Molecule: CC(CCc1ccc(OCCN(C)C)cc1)N(C)C (stereo not drawn) [Example 58, 4-[2-(Dimethylamino)ethoxy]-N,N,α-trimethylbenzenepropylamine dihydrochloride]
- MIC (Candida albicans A26): 1.25 µg/mL
- MIC (Aspergillus flavus M152): 20 µg/mL
- MIC [2]: 10 µg/mL

Molecule: CC(CCc1ccc(OC2CCCC2)cc1)NCCN1CCOCC1 (stereo not shown) [Example 47, N-[3-[4-(Cyclopentyloxy)phenyl]-1-methylpropyl]-4-morpholineethanamine dihydrochloride]
- MIC (Candida albicans A26): 10 µg/mL
- MIC (Aspergillus flavus M152): 10 µg/mL
- MIC [2]: 20 µg/mL

Molecule: CCCCOc1ccc(CCC(C)N(C)CC)cc1 (stereo not drawn) [Example 68, 4-Butoxy-N-ethyl-N,α-dimethylbenzenepropanamine hydrochloride]
- MIC (Candida albicans A26): 0.625 µg/mL
- MIC (Aspergillus flavus M152): 0.625 µg/mL
- MIC [2]: 1.25 µg/mL

Molecule: CC(CCc1ccc(OCc2ccccc2)cc1)N(C)C (stereo not drawn) [Example 84, N,N,α-Trimethyl-4-(phenylmethoxy)benzene propanamine hydrochloride]
- MIC (Candida albicans A26): 0.156 µg/mL
- MIC (Aspergillus flavus M152): 10 µg/mL
- MIC [2]: 0.312 µg/mL

Molecule: CCCCCCOc1ccc(CC(c2ccc(OC)cc2)C(C)N)cc1 (stereo not drawn) [Example 72, 4-(Hexyloxy)-β-4-methoxyphenyl-αmethylbenzenepropanamine hydrochloride]
- MIC (Candida albicans A26): 10 µg/mL
- MIC (Aspergillus flavus M152): 10 µg/mL
- MIC [2]: 5 µg/mL

Molecule: CNCC(Cc1ccc2c(c1)OCO2)c1ccccc1.Cl (stereo not drawn) [Example 33, N-Methyl-β-phenyl-1,3-benzodioxole-5-propanamine hydrochloride]
- plasma prothrombin time [1, 3]: 18 s

Molecule: CCCCOc1ccc(CCC(CC)N(C)C)cc1 (stereo not drawn) [Example 70, 4-Butoxy-α-ethyl-N,N-dimethylbenzenepropanamine hydrochloride]
- MIC (Candida albicans A26): 0.156 µg/mL
- MIC (Aspergillus flavus M152): 10 µg/mL
- MIC [2]: 0.156 µg/mL

Molecule: CCCCCCOc1ccc(CC(CNCCN(C)C)c2cc(OC)c(OC)c(OC)c2)cc1.Cl.Cl (stereo not shown) [Example 31, N'-[3-[4-(Hexyloxy)phenyl]-2-(3,4,5-trimethoxyphenyl)-propyl]-N,N-dimethyl-1,2-ethanediamine dihydrochloride]
- plasma prothrombin time [1, 3]: 150 s

Molecule: CCCCCCCCOc1ccc(CC(CN)c2cc(OC)c(OC)c(OC)c2)cc1 (stereo not drawn) [Example 18, 4-(Octyloxy)-β-(3,4,5-trimethoxy)phenylbenzenepropanamine hydrochloride]
- plasma prothrombin time [1, 3]: 125 s

Molecule: CSCCOc1ccc(CCC(C)N(C)C)cc1 (stereo not drawn) [Example 57, 4-(2-Methylthioethoxy)-N,N,α-trimethylbenzenepropanamine hydrochloride]
- MIC (Candida albicans A26): 1.25 µg/mL
- MIC (Aspergillus flavus M152): 20 µg/mL
- MIC [2]: 0.312 µg/mL

Molecule: CC(CCc1ccc(OCCn2ccnc2)cc1)N(C)C (stereo not drawn) [Example 61, N,N,α-Trimethyl-4-[2-(1H-imidazol-1-yl)ethoxy]benzenepropanamine]
- MIC (Candida albicans A26): 5 µg/mL
- MIC (Aspergillus flavus M152): > 20 µg/mL
- MIC [2]: 10 µg/mL

Molecule: CC(C)c1ccc(CC(CN)c2ccccc2)cc1.Cl (stereo not drawn) [Example 14, 4-(1-Methylethyl)-β-phenylbenzenepropanamine hydrochloride]
- plasma prothrombin time [1, 3]: 101 s

Molecule: CCCCCOc1ccc(CC(CN)c2ccc(-c3ccccc3)cc2)cc1.Cl (stereo not drawn) [Example 12, β-[[4-(Pentyloxy)phenyl]methyl][1,1'-biphenyl]-4-ethanamine hydrochloride]
- plasma prothrombin time [1, 4]: 21 s
- plasma prothrombin time [1, 5]: 33 s
- plasma prothrombin time [1, 3]: 75 s

Molecule: CCCCCCOc1ccc(CC(CNC)c2ccccc2)cc1 (stereo not drawn) [Example 29, N-Methyl-4-(hexyloxy)-β-phenylbenzenepropanamine]
- plasma prothrombin time [1, 4]: 17 s
- plasma prothrombin time [1, 5]: 31 s
- plasma prothrombin time [1, 3]: 87 s

Molecule: CC(CCc1ccc(OCc2cccc(F)c2)cc1)N(C)C (stereo not drawn) [Example 63, N,N,α-Trimethyl-4-[(3-fluorophenyl)methoxy]benzenepropanamine hydrochloride]
- MIC (Candida albicans A26): 0.625 µg/mL
- MIC (Aspergillus flavus M152): 5 µg/mL
- MIC [2]: 1.25 µg/mL

Molecule: CCCCCCCCCCCCOc1ccc(CCC(C)NCCN(C)C)cc1 (stereo not shown) [Example 52, N'-[3-[4-(Dodecyloxy)phenyl]-1-methylpropyl]-N,N-dimethyl-1,2-ethanediaminedihydrochloride]
- plasma prothrombin time [1, 5]: 20 s
- plasma prothrombin time [1, 3]: 87 s

Molecule: CC(CCc1ccc(OCC2CCCC2)cc1)N(C)C (stereo not drawn) [Example 80, 4-Cyclopentylmethoxy-N,N-α-trimethylbenzenepropanamine hydrochloride]
- plasma prothrombin time ([1]; 11 micrograms per milliliter of plasma): 17 s
- plasma prothrombin time [1, 6]: 19 s
- plasma prothrombin time ([1]; 45 micrograms per milliliter of plasma, hydrochloride): 24 s
- plasma prothrombin time ([1]; 90 micrograms per milliliter of plasma, hydrochloride): 43 s
- plasma prothrombin time ([1]; 180 micrograms per milliliter of plasma, hydrochloride): 88 s

Molecule: COc1ccc(CC(c2ccccc2)C(C)N)cc1OCC1CCCCC1 (stereo not drawn) [Example 71, 3-(Cyclohexylmethoxy)-4-methoxy-α-methyl-β-phenylbenzenepropanamine hydrochloride]
- MIC (Candida albicans A26): 20 µg/mL
- MIC (Aspergillus flavus M152): 10 µg/mL
- MIC [2]: 10 µg/mL

Molecule: CCCCOc1ccc(CC(C)CN(C)C)cc1.Cl (stereo not drawn) [Example 78, 4-Butoxy-N,N,β-trimethylbenzenepropanamine hydrochloride]
- plasma prothrombin time [1, 4]: 23 s
- plasma prothrombin time [1, 5]: 31 s
- plasma prothrombin time [1, 3]: 67 s

Molecule: CC(CCc1ccc(OCCCC#N)cc1)N(C)C (stereo not shown) [Example 59, 4-8 4-[3-(Dimethylamino)butyl]phenoxy]butanenitrile hydrochloride]
- MIC (Candida albicans A26): 2.5 µg/mL
- MIC (Aspergillus flavus M152): 20 µg/mL
- MIC [2]: 20 µg/mL
